Reference: US20240049707A1, “PESTICIDE COMPOSITIONS OF LICOCHALCONE C” (METABOLIC INSIGHTS LTD., priority 2020, published 2024)

What was measured:
[1] = system: Rhizoctonia solani; assay: Microplate based assay of bioactivity against Rhizoctonia solani; assay type: cell-based; conditions: 10 μl of 250 ppm solution + 40 μl inoculum, activity grade x repeats x days of activity/252 x 100
Procedure: Diluted in DMSO Licochalcone C was added to microplate wells and mixed with 50 μl of hyphae suspension and growth of the fungus, starting from blended hyphae, was monitored by plate reader and visual inspection. Inoculum Preparation of Rhizoctonia solani Hyphae: The concentration of the suspension should be 4×10^4 CFU/ml (diluted 10-fold concentration should be 4000 CFU/ml). Dilute the inoculum stock 1:20 in PDBC—1 ml in 20 ml, or calculate the dilution needed, to prepare final concentration of 2000 CFU/ml. The amount in each well should be about 100 CFU. […] Screening of Plates: • 1) Screen plate at […]: 3d, 7d, 14d and 21d following the assay start • 2) Calculate the difference of absorbance between each screen and the read at zero time • 3) Calculate the percentage of growth inhibition of each well at each time point. […]

[2] = system: Fusarium oxysporum; assay: Microplate based screening of bioactivity against Fusarium oxysporum; assay type: cell-based; conditions: 10 μl of 250 ppm solution + 40 μl inoculum, activity grade x repeats x days of activity/252 x 100
Procedure: Diluted in DMSO Licochalcone C was added to microplate wells and mixed with freshly prepared spore suspension and growth of the fungus, starting from frozen spores, was monitored using the plate reader and by visual inspection. […]
Microplate Preparation for Licochalcone C Bioactivity Experiment: • 1) Take a stock solution of purified 1% Licochalcone C in DMSO from the −20 freezer and thaw it on the bench. • 2) Take 1 μl of stock solution of 1% Licochalcone C and dilute up to 250 ppm with 39 μl of water. • 3) Take 10 μl of the diluted (250 ppm) Licochalcone C solution into the wells of the microplate using a multi-pipette. • 4) Add 40 μl of vigorously mixed spore suspension inoculum to the wells of the microplate using a multi-pipette. • 5) Seal the plate with transparent sealer • 6) Shake the plate for 10 min at 2000 RPM to mix the materials with the hyphae suspension • 7) Centrifugate the plate at 1000RCF for is and stop to collect the liquid at the bottom of the plate • 8) Keep the microplate on the bench until it is read by the plate reader • 9) Read the plate using the plate reader • 10) Collect the plates on the bench • 11) Insert collected plates to a plastic box with cloth cover and put the box in the incubator at 25° C. […]

In the case of `COc1c(/C=C/C(=O)c2ccc(O)cc2)ccc(O)c1CC=C(C)C` [Licochalcone C, (E)-3-[4-hydroxy-2-methoxy-3-(3-methylbut-2-enyl)phenyl]-1-(4-hydroxyphenyl)prop-2-en-1-one], the “Relative Activity value (%)” value [1] is reported as 100% and the “Relative Activity value (%)” value [2] is reported as 25%.
